“And” between values parts separate entries of the source, which are not always exact repeats. Identical values can stand only once. Inconclusive results and toxic doses are left out. Rule for the calls: active = survival T/C of 150% or more; inactive = T/C below 125% in these data.
Tested on: P388 leukemia ip, CD2F1 mice, survival T/C
Test: NCI In Vivo Anticancer Drug Screen. Data for tumor model P388 Leukemia (intraperitoneal) in CD2F1 (CDF1) mice
Details: endpoint: median survival time, higher = longer survival
Summary of the method: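 Mice carrying the transplanted tumor received test compound or vehicle. Survival was recorded in each group, and the value is the treated-group measurement divided by that of the vehicle-treated control group.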

[1] = dose: 100.0 mg/kg/injection, schedule: Q01DX001 (ip), vehicle: Klucel (hydroxypropylcellulose) (HPC)
[2] = dose: 200.0 mg/kg/injection, schedule: Q01DX001 (ip), vehicle: Klucel (hydroxypropylcellulose) (HPC)
[3] = dose: 400.0 mg/kg/injection, schedule: Q01DX001 (ip), vehicle: Klucel (hydroxypropylcellulose) (HPC)
[4] = dose: 50.0 mg/kg/injection, schedule: Q01DX005 (ip), vehicle: saline with Tween-80
[5] = dose: 120.0 mg/kg/injection, schedule: Q01DX005 (ip), vehicle: saline with Tween-80
[6] = dose: 200.0 mg/kg/injection, schedule: Q01DX005 (ip), vehicle: saline with Tween-80
[7] = dose: 60.0 mg/kg/injection, schedule: Q01DX005 (ip), vehicle: saline with Tween-80
[8] = dose: 100.0 mg/kg/injection, schedule: Q01DX005 (ip), vehicle: saline with Tween-80
[9] = dose: 50.0 mg/kg/injection, schedule: Q01DX009 (ip), vehicle: Klucel (hydroxypropylcellulose) (HPC)
[10] = dose: 100.0 mg/kg/injection, schedule: Q01DX009 (ip), vehicle: Klucel (hydroxypropylcellulose) (HPC)
[11] = dose: 200.0 mg/kg/injection, schedule: Q01DX009 (ip), vehicle: Klucel (hydroxypropylcellulose) (HPC)
[12] = dose: 60.0 mg/kg/injection, schedule: Q01DX005 (ip), vehicle: Klucel (hydroxypropylcellulose) (HPC)
[13] = dose: 120.0 mg/kg/injection, schedule: Q01DX005 (ip), vehicle: Klucel (hydroxypropylcellulose) (HPC)
[14] = dose: 240.0 mg/kg/injection, schedule: Q01DX005 (ip), vehicle: Klucel (hydroxypropylcellulose) (HPC)

Measured: T/C

CN1C(=O)/C(=c2\sc3nc4ccccc4n3c2=O)c2cc(Br)ccc21
inactive: [1] 99 % of control | [2] 99 % of control | [3] 101 % of control

COc1ccc(CC2C=CCN2C(=O)OCc2ccccc2)cc1 (configuration not stated)
inactive: [1] 106 % of control | [2] 99 % of control | [3] 99 % of control

Clc1ccc(C2N3Cc4ccccc4CN2c2ccccc23)cc1
inactive: [1] 100 % of control | [2] 98 % of control | [3] 96 % of control

O=c1c2[nH]c3ccccc3sc=2c(=O)n1-c1ccccc1Cl
inactive: [4] 98 % of control | [5] 98 % of control | [6] 97 % of control

O=C1Nc2ccccc2C1NC(=S)Nc1ccc(Br)cc1 (configuration not stated)
inactive: [7] 91 % of control | [5] 94 % of control | dose: 240.0 mg/kg/injection, schedule: Q01DX005 (ip), vehicle: saline with Tween-80 88 % of control

CC(C)CNC(=O)c1ccccc1C(=O)NC1(C(=O)NCC(C)C)CCCC1
inactive: [4] 87 % of control | [8] 86 % of control | [6] 94 % of control

COc1cccc2[se]c(C(=O)O)cc12
inactive: dose: 50.0 mg/kg/injection, schedule: Q01DX009 (ip), vehicle: saline 92 % of control | dose: 100.0 mg/kg/injection, schedule: Q01DX009 (ip), vehicle: saline 89 % of control

Nc1c(Br)cc(Br)c2[nH]c(=O)c3ccccc3c12
inactive: [7] 116 % of control | [5] 106 % of control

C=C(C)C(=O)Oc1cccccc1=O
inactive: [4] 102 % of control | [8] 106 % of control | [6] 114 % of control

CCN(CC)CCC(O)(c1ccc2c(c1)OCO2)c1cc(OC)c(OC)c(OC)c1 (configuration not stated)
inactive: dose: 50.0 mg/kg/injection, schedule: Q01DX005 (ip), vehicle: Klucel (hydroxypropylcellulose) (HPC) 103 % of control and 93 % of control and 94 % of control | dose: 200.0 mg/kg/injection, schedule: Q01DX005 (ip), vehicle: Klucel (hydroxypropylcellulose) (HPC) 101 % of control

CC(=O)OC(C[N+](=O)[O-])C(Cl)(Cl)Cl (configuration not stated)
inactive: dose: 6.25 mg/kg/injection, schedule: Q01DX009 (ip), vehicle: saline with Tween-80 104 % of control | dose: 12.5 mg/kg/injection, schedule: Q01DX009 (ip), vehicle: saline with Tween-80 109 % of control | dose: 25.0 mg/kg/injection, schedule: Q01DX009 (ip), vehicle: saline with Tween-80 100 % of control

CC1(C)CCCC2(C)C1CCC1(C)OC3=CC(=O)C(O)=CC3=CC12 (configuration not stated)
inactive: dose: 6.25 mg/kg/injection, schedule: Q01DX009 (ip), vehicle: Klucel (hydroxypropylcellulose) (HPC) 100 % of control | dose: 12.5 mg/kg/injection, schedule: Q01DX009 (ip), vehicle: Klucel (hydroxypropylcellulose) (HPC) 112 % of control | dose: 25.0 mg/kg/injection, schedule: Q01DX009 (ip), vehicle: Klucel (hydroxypropylcellulose) (HPC) 119 % of control

CC(C)N1CCC(OC(=O)Nc2ccccc2)C1 (configuration not stated)
inactive: [9] 100 % of control | [10] 99 % of control | [11] 98 % of control

N=C(N)Sc1cc(O)c(O)c2ccccc12
inactive: dose: 6.25 mg/kg/injection, schedule: Q01DX005 (ip), vehicle: saline 104 % of control | dose: 12.5 mg/kg/injection, schedule: Q01DX005 (ip), vehicle: saline 109 % of control

CC(=O)OC(C)(C)/C=C/C(=O)[C@](C)(O)[C@H]1[C@H](O)C[C@@]2(C)[C@@H]3CC=C4[C@@H](C[C@H](O)C(=O)C4(C)C)[C@]3(C)C(=O)C[C@]12C
inactive: dose: 0.13 mg/kg/injection, schedule: Q01DX010 (ip), vehicle: saline 95 % of control | dose: 0.25 mg/kg/injection, schedule: Q01DX009 (ip), vehicle: saline with Tween-80 104 % of control | dose: 0.25 mg/kg/injection, schedule: Q01DX010 (ip), vehicle: saline 104 % of control | dose: 0.5 mg/kg/injection, schedule: Q01DX009 (ip), vehicle: saline with Tween-80 100 % of control | dose: 0.5 mg/kg/injection, schedule: Q01DX010 (ip), vehicle: saline 100 % of control | dose: 0.62 mg/kg/injection, schedule: Q01DX009 (ip), vehicle: saline 113 % of control | dose: 1.0 mg/kg/injection, schedule: Q01DX009 (ip), vehicle: saline with Tween-80 109 % of control | dose: 1.0 mg/kg/injection, schedule: Q01DX010 (ip), vehicle: saline 104 % of control | dose: 1.25 mg/kg/injection, schedule: Q01DX009 (ip), vehicle: saline 117 % of control | dose: 2.0 mg/kg/injection, schedule: Q01DX009 (ip), vehicle: saline with Tween-80 118 % of control | dose: 2.5 mg/kg/injection, schedule: Q01DX009 (ip), vehicle: saline 117 % of control | dose: 5.0 mg/kg/injection, schedule: Q01DX009 (ip), vehicle: saline 113 % of control | dose: 10.0 mg/kg/injection, schedule: Q01DX009 (ip), vehicle: saline 113 % of control

CN(C)N1C(=O)SCC(c2ccccc2)(c2ccccc2)C1=O
inactive: [12] 97 % of control | [13] 96 % of control | [14] 86 % of control

COC1/C=C/OC2(C)Oc3c(C)c(O)c4c(O)c(c(/C=N\N(C)C56CC7CC(CC(C7)C5)C6)c(O)c4c3C2=O)NC(=O)C(C)=C/C=C/C(C)C(O)C(C)C(O)C(C)C(OC(C)=O)C1C (configuration not stated)
inactive: [12] 93 % of control | [13] 96 % of control | [14] 102 % of control

CS(=O)(=O)/C=C/c1cc2ccccc2[nH]1
inactive: [9] 89 % of control | [10] 101 % of control | [11] 104 % of control

CCC(C)Sc1nc2ccc(NC(=O)/C=C/C(=O)O)cc2s1 (configuration not stated)
inactive: dose: 100.0 mg/kg/injection, schedule: Q04DX003 (ip), vehicle: Klucel (hydroxypropylcellulose) (HPC) 95 % of control | dose: 200.0 mg/kg/injection, schedule: Q04DX003 (ip), vehicle: Klucel (hydroxypropylcellulose) (HPC) 100 % of control
